Reference: patent US12162858B2, “Quinoline derivatives as inhibitors of AXL/MER RTK and CSF1R” (QURIENT CO., LTD., priority 2018, dated 2024)
pIC50: −log10 of the molar value.

target: CSF1R (Homo sapiens, UniProt P07333); test: Cellular CSF1R inhibition ELISA (p-CSF1R, M-CSF-induced) using THP-1 cells; format: cell-based; parameters: THP-1 cells act as a model for human monocytes; endogenous in cells; host or cells: THP-1
Outline: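 THP-1 cells (2×10^5/well, RPMI/10% FBS) were treated with compound, 10 doses in 3-fold steps, for 24 h at 37 °C in 0.2% DMSO final. They were then stimulated 5 min with human M-CSF (10 ng/ml final) and lysed. p-CSF1R was read by sandwich ELISA (HRP/TMB), with a sigmoidal dose-response fit.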

CSF1R, sequence (P07333 20-972): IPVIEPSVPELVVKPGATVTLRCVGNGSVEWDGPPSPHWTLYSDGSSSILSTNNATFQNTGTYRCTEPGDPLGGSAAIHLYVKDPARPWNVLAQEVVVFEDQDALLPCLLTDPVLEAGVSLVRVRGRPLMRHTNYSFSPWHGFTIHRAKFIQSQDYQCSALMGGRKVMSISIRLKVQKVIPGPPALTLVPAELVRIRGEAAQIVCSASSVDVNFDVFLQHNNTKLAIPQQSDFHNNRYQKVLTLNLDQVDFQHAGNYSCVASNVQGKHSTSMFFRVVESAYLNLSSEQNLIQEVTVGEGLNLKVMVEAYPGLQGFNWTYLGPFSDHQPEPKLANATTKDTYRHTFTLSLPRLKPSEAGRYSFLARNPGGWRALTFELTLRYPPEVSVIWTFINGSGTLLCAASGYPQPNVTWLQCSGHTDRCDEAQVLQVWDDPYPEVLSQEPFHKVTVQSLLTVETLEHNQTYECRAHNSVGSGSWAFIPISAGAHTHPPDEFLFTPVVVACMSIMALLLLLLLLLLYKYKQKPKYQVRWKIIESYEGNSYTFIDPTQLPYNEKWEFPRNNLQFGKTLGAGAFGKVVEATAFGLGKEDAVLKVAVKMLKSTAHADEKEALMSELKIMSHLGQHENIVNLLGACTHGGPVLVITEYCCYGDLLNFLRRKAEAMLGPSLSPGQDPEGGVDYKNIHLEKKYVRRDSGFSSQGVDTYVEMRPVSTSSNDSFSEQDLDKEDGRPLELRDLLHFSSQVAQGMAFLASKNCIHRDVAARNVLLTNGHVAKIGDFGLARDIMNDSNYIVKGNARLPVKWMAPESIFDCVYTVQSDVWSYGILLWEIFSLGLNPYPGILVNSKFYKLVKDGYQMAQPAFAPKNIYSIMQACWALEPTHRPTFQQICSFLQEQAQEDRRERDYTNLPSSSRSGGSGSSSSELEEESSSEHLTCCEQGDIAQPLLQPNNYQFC

Compound | pIC50
CCn1nc(C(=O)Nc2ccc(Oc3ccnc4cc(OC)c(OC)cc34)cn2)c(OCC(F)(F)F)c1C [Compound 1] | > 6.30
COc1cc2nccc(Oc3ccc(NC(=O)c4nn(C(C)C)c(C)c4OCC(F)(F)F)nc3)c2cc1OC [Compound 2] | > 6.30
COc1cc2nccc(Oc3ccc(NC(=O)c4nn(C5CC5)c(C(C)=O)c4OCC(F)(F)F)nc3)c2cc1OC [Compound 3] | > 6.30
COc1cc2nccc(Oc3ccc(NC(=O)c4nn(C5CCOC5)cc4OCC(F)(F)F)nc3)c2cc1OC (stereo not shown) [Compound 13] | > 6.30
CCCn1cc(OCCF)c(C(=O)Nc2ccc(Oc3ccnc4cc(OC)c(OC)cc34)cn2)n1 [Compound 14] | > 6.30
CCCn1cc(OCCC(O)CO)c(C(=O)Nc2ccc(Oc3ccnc4cc(OC)c(OC)cc34)cn2)n1 (stereo not shown) [Compound 15] | ≤ 6.00
COc1cc2nccc(Oc3ccc(NC(=O)c4nn(CC(C)O)cc4OCC(F)(F)F)nc3)c2cc1OC (stereo not shown) [Compound 17] | > 6.30
COc1cc2nccc(Oc3ccc(NC(=O)c4nn(CCCO)cc4OCC(F)(F)F)nc3)c2cc1OC [Compound 18] | > 6.30
COc1cc2nccc(Oc3ccc(NC(=O)c4nn(CC(C)=O)cc4OCC(F)(F)F)nc3)c2cc1OC [Compound 19] | > 6.30
CCC(=O)n1cc(OCC(F)(F)F)c(C(=O)Nc2ccc(Oc3ccnc4cc(OC)c(OC)cc34)cn2)n1 [Compound 20] | > 6.30
COc1cc2nccc(Oc3ccc(NC(=O)c4nn(CC(C)C)cc4OCC(F)(F)F)nc3)c2cc1OC [Compound 21] | > 6.30
COc1cc2nccc(Oc3ccc(NC(=O)c4nn(C(C)(C)C)cc4OCC(F)(F)F)nc3)c2cc1OC [Compound 22] | > 6.30
CCCn1cc(NCC(F)(F)F)c(C(=O)Nc2ccc(Oc3ccnc4cc(OC)c(OC)cc34)cn2)n1 [Compound 23] | > 6.30
COc1cc2nccc(Oc3ccc(NC(=O)c4nn(C5CCC5)cc4OCC(F)(F)F)nc3)c2cc1OC [Compound 24] | > 6.30
CCCn1cc(OCC(F)(F)F)c(C(=O)Nc2ccc(Oc3ccnc4cc(OC)c(OC)cc34)c(F)c2)n1 [Compound 25] | 6.00 to 6.30
CCCn1cc(OCC(F)(F)F)c(C(=O)Nc2ccc(Oc3ccnc4cc(OC)c(OC)cc34)c(C)c2)n1 [Compound 26] | > 6.30
CCCn1cc(OCC(F)(F)F)c(C(=O)Nc2ccc(Oc3ccnc4cc(OC)c(OC)cc34)cc2C)n1 [Compound 27] | ≤ 6.00
CCCn1cc(OCC(F)(F)F)c(C(=O)Nc2ccc(Oc3ccnc4cc(OC)c(OC)cc34)cc2F)n1 [Compound 28] | 6.00 to 6.30
COc1cc2nccc(Oc3ccc(NC(=O)c4nn(C[C@@H](C)O)cc4OCC(F)(F)F)nc3)c2cc1OC [Compound 29] | > 6.30
COc1cc2nccc(Oc3ccc(NC(=O)c4nn(C[C@H](C)O)cc4OCC(F)(F)F)nc3)c2cc1OC [Compound 30] | > 6.30
CCCn1cc(OCCC(F)(F)F)c(C(=O)Nc2ccc(Oc3ccnc4cc(OC)c(OC)cc34)cn2)n1 [Compound 31] | > 6.30
CCCn1cc(OCC(F)(F)F)c(C(=O)Nc2ccc(Oc3ccnc4cc(OC)c(OC)cc34)nn2)n1 [Compound 32] | > 6.30
COc1cc2nccc(Oc3ccc(NC(=O)c4nn(C)cc4OCC(F)(F)F)nc3)c2cc1OC [Compound 33] | > 6.30
CCCn1cc(N(C)CC2CCOCC2)c(C(=O)Nc2ccc(Oc3ccnc4cc(OC)c(OC)cc34)cn2)n1 [Compound 34] | ≤ 6.00
CCCn1cc(OC(C)C)c(C(=O)Nc2ccc(Oc3ccnc4cc(OC)c(OC(F)(F)F)cc34)c(F)c2)n1 [Compound 35] | ≤ 6.00
CCCCn1cc(OCC(F)(F)F)c(C(=O)Nc2ccc(Oc3ccnc4cc(OC)c(OC)cc34)cn2)n1 [Compound 36] | > 6.30

Compound | pIC50
COc1cc2nccc(Oc3ccc(NC(=O)c4nn(C)cc4OCC(F)(F)F)cc3C)c2cc1OC [Compound 37] | > 6.30
CCCn1cc(OCC(F)(F)F)c(C(=O)Nc2ccc(Oc3ccnc4cc(OC)c(OC)cc34)cc2)n1 [Compound 38] | 6.00 to 6.30
COc1cc2nccc(Oc3ccc(NC(=O)c4nn(CCC#N)cc4OCC(F)(F)F)nc3)c2cc1OC [Compound 39] | > 6.30
COc1cc2nccc(Oc3ccc(NC(=O)c4nn(C5CCCC5)cc4OCC(F)(F)F)nc3)c2cc1OC [Compound 40] | > 6.30
COc1cc2nccc(Oc3ccc(NC(=O)c4nn(CC5CC5)cc4OCC(F)(F)F)nc3)c2cc1OC [Compound 41] | > 6.30
COc1cc2nccc(Oc3ccc(NC(=O)c4nn(CC5CCC5)cc4OCC(F)(F)F)nc3)c2cc1OC [Compound 42] | > 6.30
COc1cc2nccc(Oc3ccc(NC(=O)c4nn(CC5CCCCC5)cc4OCC(F)(F)F)nc3)c2cc1OC [Compound 43] | > 6.30
COc1cc2nccc(Oc3ccc(NC(=O)c4nn(CC5CCOC5)cc4OCC(F)(F)F)nc3)c2cc1OC (stereo not shown) [Compound 44] | > 6.30
COc1cc2nccc(Oc3ccc(NC(=O)c4nn(C)cc4OCC(F)(F)F)c(F)c3)c2cc1OC [Compound 45] | > 6.30
COc1cc2nccc(Oc3ccc(NC(=O)c4nn(CCO)cc4OCC(F)(F)F)c(F)c3)c2cc1OC [Compound 46] | 6.00 to 6.30
COc1cc2nccc(Oc3ccc(NC(=O)c4nn(C5CCCC5)cc4OCC(F)(F)F)c(F)c3)c2cc1OC [Compound 47] | 6.00 to 6.30
COc1cc2nccc(Oc3ccc(NC(=O)c4nn(CC(C)C)cc4OCC(F)(F)F)c(F)c3)c2cc1OC [Compound 48] | 6.00 to 6.30
COCCn1cc(OCC(F)(F)F)c(C(=O)Nc2ccc(Oc3ccnc4cc(OC)c(OC)cc34)cc2F)n1 [Compound 49] | ≤ 6.00
COc1cc2nccc(Oc3ccc(NC(=O)c4nn(C)cc4OCC(F)(F)F)cc3F)c2cc1OC [Compound 50] | 6.00 to 6.30
COc1cc2nccc(Oc3ccc(NC(=O)c4nn(CCO)cc4OCC(F)(F)F)cc3F)c2cc1OC [Compound 51] | > 6.30
COc1cc2nccc(Oc3ccc(NC(=O)c4nn(C5CCCC5)cc4OCC(F)(F)F)cc3F)c2cc1OC [Compound 52] | ≤ 6.00
COc1cc2nccc(Oc3ccc(NC(=O)c4nn(CC(C)C)cc4OCC(F)(F)F)cc3F)c2cc1OC [Compound 53] | 6.00 to 6.30
COCCn1cc(OCC(F)(F)F)c(C(=O)Nc2ccc(Oc3ccnc4cc(OC)c(OC)cc34)c(F)c2)n1 [Compound 54] | ≤ 6.00
COc1cc2nccc(Oc3ccc(NC(=O)c4nn(C5CCOC5)cc4OCC(F)(F)F)cc3F)c2cc1OC (stereo not shown) [Compound 55] | ≤ 6.00
COc1cc2nccc(Oc3ccc(NC(=O)c4nn(CCO)cc4OCC(F)(F)F)cc3C)c2cc1OC [Compound 56] | > 6.30
COc1cc2nccc(Oc3ccc(NC(=O)c4nn(C5CCCC5)cc4OCC(F)(F)F)cc3C)c2cc1OC [Compound 57] | 6.00 to 6.30
COc1cc2nccc(Oc3ccc(NC(=O)c4nn(CC(C)C)cc4OCC(F)(F)F)cc3C)c2cc1OC [Compound 58] | ≤ 6.00
COc1cc2nccc(Oc3ccc(NC(=O)c4nn(CCO)cc4OCC(F)(F)F)cc3)c2cc1OC [Compound 59] | > 6.30
COc1cc2nccc(Oc3ccc(NC(=O)c4nn(C5CCCC5)cc4OCC(F)(F)F)cc3)c2cc1OC [Compound 60] | 6.00 to 6.30
COCCn1cc(OCC(F)(F)F)c(C(=O)Nc2ccc(Oc3ccnc4cc(OC)c(OC)cc34)cc2)n1 [Compound 61] | ≤ 6.00
COc1cc2nccc(Oc3ccc(NC(=O)c4nn(C5CCOC5)cc4OCC(F)(F)F)cc3)c2cc1OC (stereo not shown) [Compound 62] | ≤ 6.00
